In ChEMBL document CHEMBL1137965, “Crucial role of the peroxyketal function for antimalarial activity in the G-factor series” (Bioorg Med Chem Lett, 2004):

Tested on: Plasmodium falciparum
Assay: In vitro inhibition of Plasmodium falciparum in [3H]hypoxanthine incorporation assay
Assay type: functional, organism-based

Question: Which IC50 does the source give for `CC1(C)C(=O)C2=C(OO[C@]3(C)CO[C@H]23)C(C)(C)C1=O` here?
Answer: > 100 µM

Question: `CC1(C)C(=O)C2=C[C@](C)(CO)OO[C@]2(O)C(C)(C)C1=O` was tested. Which IC50 did it give?
Answer: > 100 µM

Question: Which IC50 does the source give for `CO[C@]12OO[C@@](C)(CO[Si](c3ccccc3)(c3ccccc3)C(C)(C)C)C=C1C(=O)C(C)(C)C(=O)C2(C)C` here?
Answer: 1.5 µM

Question: For `CO[C@]12OOC(C)(C)C=C1C(=O)C(C)(C)C(=O)C2(C)C`, which IC50 is on record?
Answer: 0.28 µM

Question: How did the IC50 turn out when `CO[C@]12OO[C@](C)(CO)C=C1C(=O)C(C)(C)C(=O)C2(C)C` was run?
Answer: 40 µM

Question: `CC(=O)OC12OOC(C)(C)C=C1C(=O)C(C)(C)C(=O)C2(C)C` (configuration not stated) was tested. Which IC50 did it give?
Answer: 20.5 µM

Question: With `CC1(C)C(=O)C2=C[C@@](C)(CO)OO[C@]2(O)C(C)(C)C1=O` as the molecule, how does the IC50 read?
Answer: > 100 µM

Question: For `CC1(C)C=C2C(=O)C(C)(C)C(=O)C(C)(C)C2(F)OO1` (configuration not stated), which IC50 is on record?
Answer: > 100 µM

Question: With `CC1(C)C=C2C(=O)C(C)(C)C(=O)C(C)(C)[C@@]2(O)OO1` as the molecule, how does the IC50 read?
Answer: 36 µM

Question: How did the IC50 turn out when `CO[C@]12OO[C@](C)(CO[Si](c3ccccc3)(c3ccccc3)C(C)(C)C)C=C1C(=O)C(C)(C)C(=O)C2(C)C` was run?
Answer: 1.4 µM

Question: How did the IC50 turn out when `CO[C@]12OO[C@@](C)(CO)C=C1C(=O)C(C)(C)C(=O)C2(C)C` was run?
Answer: 1.4 µM

Question: Which IC50 does the source give for `C[C@@H]1CC[C@H]2[C@@H](C)C(=O)O[C@@H]3O[C@@]4(C)CC[C@@H]1[C@]32OO4` [ARTEMISININ] here?
Answer: 0.015 µM
